Measured values: patent publication US20040197321A1, “Composition and method to prevent or reduce diarrhea and steatorrhea in HIV patients” (priority 2002, published 2004)
pIC50: −log10 of the molar value. Entries after “also recorded” stand apart in the source; their conditions may differ. Counter-ions that a name gives are not always drawn. Like-named read-outs stand apart in the source and are kept apart here.

Columns and labels:
[1] = target: T1, USP Reference Standard Pancrelipase (Sus scrofa, UniProt P00591); assay: Lipase assay (USP titrimetric): inhibition of pancrelipase at pH 9.0; assay type: biochemical; details: for IC50: read-out: IC50 for inhibitors of pancrelipase (converted)
T1 sequence (P00591 1-450): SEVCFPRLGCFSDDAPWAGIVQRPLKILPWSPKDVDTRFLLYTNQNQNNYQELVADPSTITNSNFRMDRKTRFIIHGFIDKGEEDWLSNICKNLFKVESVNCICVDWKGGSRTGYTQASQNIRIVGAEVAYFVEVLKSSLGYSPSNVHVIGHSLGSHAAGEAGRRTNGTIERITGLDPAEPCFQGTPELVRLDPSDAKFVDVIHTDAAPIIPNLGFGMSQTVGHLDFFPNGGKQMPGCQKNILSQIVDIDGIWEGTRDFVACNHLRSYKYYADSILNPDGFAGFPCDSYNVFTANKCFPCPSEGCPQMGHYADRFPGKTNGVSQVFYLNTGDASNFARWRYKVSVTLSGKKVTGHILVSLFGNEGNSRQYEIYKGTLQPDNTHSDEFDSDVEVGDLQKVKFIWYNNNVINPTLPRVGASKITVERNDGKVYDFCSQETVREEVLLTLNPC
Experimental: (§1) The enzyme sources consisted of USP Reference Standard Pancrelipase, USP Reference Standard Trypsin, colipase (Sigma Chemical Co.), and enterokinase (ICN Biochemicals). Appropriate concentrations of enzyme reference standard were prepared in cold distilled water, as described in USP reference assay procedures. The Infectious Disease Clinic in Somerville, N.J. provided the HAART medications. Pure drugs could not be obtained so commercial drug preparations were used in the assays. […] Appropriate concentrations of HAART drug, drug cocktails, and excipients were prepared in distilled water and reagent-grade methanol (Aldrich, Milwaukee, Wis.) or DMSO (Aldrich, Milwaukee, Wis.).
One unit (U) of lipase activity is defined as the amount of enzyme that liberates one μequivalent of free fatty acid from triglycerides per minute at pH 9.0 and 37° C. Lipase activity (U/mg) was determined by a lipase specific titrimetric assay described in the United States Pharmacopeia (USP), Volume XXII. In brief, the substrate consists of 10% olive oil in acacia solution, 40-mg/mL sodium taurocholate, 0.075M calcium chloride, 0.05M Tris in 3.0M NaCl buffer solution (pH 7.5) and distilled water. The emulsified substrate is incubated at 37° C. and brought to pH 9.0 with 0.02N NaOH. At time zero, 1.0 mL of enzyme solution was added. A pH stat autotitrator was used to maintain pH 9.0 and the volume of 0.02 N NaOH dispensed per unit time was recorded for five (5) minutes. From the initial slope of this plot, lipase activity was calculated using the following equation:
U/mg=slope (mL of NaOH dispensed/min)×N of NaOH×1000 /mg of enzyme assayed
HAART drug solutions were mixed with the substrate prior to incubation and addition of enzyme.

[2] = target: T2, pancrelipase (Sus scrofa, UniProt P00591); assay: Pancrelipase reactivation by colipase; assay type: biochemical; details: for % Lipase Activity with Colipase: colipase 5 μg/mL
T2 construct: Sigma Chemical Co. (colipase)
T2 sequence (P00591 1-450): T1 sequence (P00591 1-450)
Experimental: Junge et al., described the procedure for the reactivation of lipase by colipase. In brief, the above lipase assay procedure was used with the following variation: colipase solution replaced the distilled water so the concentration of colipase in the final reaction mixture was 5 μg/mL.

[3] = target: T3, USP Reference Standard Trypsin (Bos taurus, UniProt P00760); assay: Trypsin assay (spectrophotometric); assay type: biochemical; details: NRTI; drug 2.1*10^-4M (Drug Tested 44-141 μg/mL); trypsin 7.6 μg/mL; 25° C.
T3 sequence (P00760 24-246): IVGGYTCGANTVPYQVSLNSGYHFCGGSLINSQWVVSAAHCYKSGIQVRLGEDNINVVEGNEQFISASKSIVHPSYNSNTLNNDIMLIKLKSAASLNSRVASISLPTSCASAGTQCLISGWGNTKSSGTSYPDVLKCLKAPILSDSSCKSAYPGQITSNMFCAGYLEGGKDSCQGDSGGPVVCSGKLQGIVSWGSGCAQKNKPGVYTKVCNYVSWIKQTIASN
Experimental: as §1, with “Appropriate” for “The enzyme sources consisted of USP Reference Standard Pancrelipase, USP Reference Standard Trypsin, colipase (Sigma Chemical Co.), and enterokinase (ICN Biochemicals). Appropriate”

[4] = tested on: HIV patients; details: Kakuda et al. 1998; cited from earlier work
[5] = tested on: pancrelipase; assay: Recovery of pancrelipase activity after inhibition, by addition of excess lipase; assay type: biochemical
Experimental: The above procedure was used to monitor pancrelipase activity with the exception that drug was not preincubated with the substrate. At time zero 1.0 mL of pancrelipase was added to initiate the reaction. At five (5) minutes, 1.0 mL of HAART drug solution was added to the reaction mixture to cause inhibition of lipase activity. At twelve (12) minutes an additional 1.0 mL of pancrelipase was added to the reaction mixture to overcome HAART inhibition. The reaction was monitored for twenty (20) minutes.

CC(C)(C)NC(=O)[C@@H]1C[C@@H]2CCCC[C@@H]2CN1C[C@@H](O)[C@H](Cc1ccccc1)NC(=O)[C@H](CC(N)=O)NC(=O)c1ccc2ccccc2n1 [FORTOVASE ®, Saquinavir] gave a pIC50 ([1]; IC50 for inhibitors of pancrelipase, pH 9.0) of 2.49.
For CCCCCCCCCCC[C@@H](C[C@@H]1OC(=O)[C@H]1CCCCCC)OC(=O)[C@H](CC(C)C)NC=O [ORLISTAT, Orlistat, reference compound], the “effect of added colipase on the inhibition of pancrelipase (in words)” value [2] was “no effect”, the “% Lipase Activity No Colipase” value ([2]; Drug Conc. 0.002 mg/mL) was 37% and the “% Lipase Activity with Colipase” value ([2]; Drug Conc. 0.002 mg/mL) was 29%.
In the case of Cc1c(O)cccc1C(=O)N[C@@H](CSc1ccccc1)[C@H](O)CN1C[C@H]2CCCC[C@H]2C[C@H]1C(=O)NC(C)(C)C [VIRACEPT ®, Nelfinavir mesylate], the IC50 ([1]; pH 9.0) was 780 µM.
For Nc1ccn([C@H]2CC[C@@H](CO)O2)c(=O)n1 [Zalcitabine USP Ref. STND, 2′,3′-Dideoxycytidine], the “Inhibition of Tryspin” value [3] was 0%.
In the case of Cc1c(O)cccc1C(=O)N[C@@H](CSc1ccccc1)[C@H](O)CN1C[C@H]2CCCC[C@H]2C[C@H]1C(=O)NC(C)(C)C [nelfinavir, 2-[2′-hydroxy-3′-phenylthiomethyl-4′-aza-5′-oxo-5′-(2″-methyl-3″-hydroxyphenyl)pentyl]decahydroisoquinoline-3-N-t-butyl-carboxamide], the “HIV patients who experience diarrhea” value [4] is listed as 12-20%.
In the case of “D-α-tocopheryl polyethylene glycol 1000 succinate [TPGS]”, the “effect of added colipase on the inhibition of pancrelipase (in words)” value [2] was “reversed; also recorded: restored pancrelipase activity”, the “% Lipase Activity No Colipase” value ([2]; Drug Conc. 10.0 mg/mL) was 21% and the “% Lipase Activity with Colipase” value ([2]; Drug Conc. 10.0 mg/mL) was 79%. For the same compound, the “inhibition of pancrelipase (in words)” value [1] was “significantly inhibited; also recorded: significant inhibition”, the “IC50 for inhibitors of pancrelipase” value ([1]; pH 9.0) was 275 µg/mL and the “% Inhibition of Pancrelipase” value ([1]; pH 9.0, Wt % Excipient in Source Used 0.2) was 6%. The “% Inhibition of Pancrelipase” value ([1]; pH 9.0, Wt % Excipient in Source Used 0.5) was 43%, the “% Inhibition of Pancrelipase” value ([1]; pH 9.0, Wt % Excipient in Source Used 1) was 79% and the “% Inhibition of Pancrelipase” value ([1]; pH 9.0, Wt % Excipient in Source Used 2) was 93%. The “% Inhibition of Pancrelipase” value ([1]; pH 9.0, Wt % Excipient in Source Used 4) was 95%, the “% Inhibition of Pancrelipase” value ([1]; pH 9.0, Wt % Excipient in Source Used 20) was 96% and the IC50 ([1]; pH 9.0) was 182 µM. The “effect of addition of excess lipase on the inhibition of pancrelipase (in words)” value [5] was “can be overcome”, the “% Reactivation of Pancrelipase” value ([5]; after addition of excess lipase (additional 1.0 mL pancrelipase at 12 minutes)) was 98% and the “% Pancrelipase Activity” value ([5]; drug inhibited, before addition of excess lipase) was 55%.
For Vitamin E, the “% Inhibition of Pancrelipase” value ([1]; pH 9.0, Wt % Excipient in Source Used 50) was 20%.
